Where two headings read alike, the source gives them in different places. Where only a bound is given, the exact number is not on record here.

Experimental findings from patent US11434205B2, “Substituted imidazole carboxylate derivatives and the use thereof” (priority 2018, dated 2022) are described below.

The subject of series [1] is rats. The series is described as follows: Loss of righting reflexes (LORR) assay in rats, ED50 by up and down method. The settings on record: Rattus norvegicus, tail vein, class symbols. The format is in vivo, rat. In a few lines: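 ED50 obtained by up-and-down dosing, with righting-reflex loss over 30 s counted as general anesthesia. Compounds injected into the tail vein (0.1 mL/s) of male Sprague-Dawley rats weighing 250-300 g.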

The subject of series [2] is rats. As to the method: Adult male Sprague-Dawley rats (250-300 g) were selected for the experiment. […] The anesthesia effects of the compounds were assessed in rats using a LORR assay and a period >30 s was considered as an indicator of general anesthesia. Then the up and down method was used to determine 50% effective dose (ED50). The drugs were administered through the tail vein of rats in a volume of 0.6 mL and at a rate of 0.1 mL/s.

Series [3] relates to rats. As to the kind of experiment: Pharmacological characteristics at equivalent doses (2×ED50) in rats. The settings on record: 2×ED50, tail vein; for Adverse reactions: Red urine (incidence): DMSO solution (DMSO alone 10/10); for Onset time: time of LORR. In a few lines:
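Anesthesia onset, recorded as time of LORR, was measured after a 2×ED50 tail-vein injection (0.6 mL, 0.1 mL/s). Animals were male Sprague-Dawley rats of 250-300 g, n=8.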

Series [4] concerns secretion of corticosterone, H295R cell line. As to the kind of experiment: cells. The settings on record: for EC50: Homo sapiens, NCI-H295R, read-out: EC50 (Corticosterone). The class given is cell-based. On the procedure: (§1) The Effects of the Compounds on Adrenocortical Function In Vitro Test
(§2) Then secretion of the cortisol and corticosterone in the supernatant, was measured using HPLC-MS/MS method to determine whether the compounds of the present invention had adrenotoxic potential.

The subject of series [5] is secretion of cortisol, H295R cell line. As to the kind of experiment: cells. The settings on record: for EC50: Homo sapiens, NCI-H295R, read-out: EC50 (Cortisol). The class given is cell-based. On the procedure: as §1, §2
The test system of series [6] is rats. The format is in vivo, rat. The settings on record: rats of the MAP/HR figures, 2×ED50, tail vein; same value in min. In a few lines:
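Hemodynamic stability judged from mean arterial pressure and heart rate, recorded at 15 s intervals over 30 min pre- and post-dose. Dosing was through a tail-vein indwelling catheter in rats carrying implanted aortic/ventricular catheters and ECG wires, operated ≥1 week earlier.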

The subject of series [7] is rats. On the procedure:
Pharmacological Effects of the Compounds on Continuous Infusion in Rats
Adult male Sprague-Dawley rats with body weight ranging from 250 to 300 gm were selected for continuous infusion test. […] Time to recovery of righting reflex from stopping infusion, and time to fully awake from stopping infusion were recorded.
The source holds these as a separate data set.

For series [8], the system named is rats. The class given is in vivo, rat. The settings on record: rats of the MAP/HR figures, 2×ED50, tail vein.
Where [9] appears, read: H295R cell line, 0.1-10000 nM, HPLC-MS/MS, Table D3.
[10] abbreviates: continuous tail vein infusion at 2×MIR, LORR maintained 1 hour, Table D4.
Where [11] appears, read: continuous tail vein infusion at 2×MIR, LORR maintained 1 hour, Table C4.
The mark [12] stands for this setting: H295R cell line, 0.1-10000 nM, HPLC-MS/MS, Table E3.
The mark [13] stands for this setting: continuous tail vein infusion at 2×MIR, LORR maintained 1 hour, Table E4.

Turning to `CC#CC1(OC(=O)c2cncn2[C@H](C)c2ccccc2)CCCCC1` [Compound D40], the median effective dose (ED50) in series [1] fell in the range of 0.1 to 0.5 mg/kg. Further, in series [2], the Approximate therapeutic index is reported as above 16 and the “Minimal lethal dose” value is reported as above 4 mg/kg. In series [3], the “Adverse reactions: Hindlimb rigidity (incidence)” value is reported as “Hindlimb rigidity (1/8),”, the “Righting reflex duration” value was 1.78 ± 1.94 min, the “Adverse reactions: Red urine (incidence)” value is “Red urine (8/8)” and the “Onset time” value is 0.73 ± 0.43 min. In series [4] (setting [9]), the “Corticosterone as an indicator to determine the presence of inhibition” value (“Corticosterone as an indicator … of inhibition” below) was found to be 0. Also, the 50% effective concentration (EC50) in series [4] was above 1 µM. In addition, the “Cortisol as an indicator to determine the presence of inhibition” value (from here on “Cortisol as an indicator … of inhibition”) in series [5] (setting [9]) is 0. Moreover, the half-maximal effective concentration (EC50) in series [5] is above 1 µM. Besides, the “recovery time of the test animals' righting reflex” value in series [6] came out at 7.35 min. For the same molecule, in series [7] (setting [10]), the Onset time was in the range of 2 to 3 min; the “Recovery time after stopping infusion” value was 10 to 15 min; the “Types and incidence of adverse reactions” value is “Tremor (5/6)”. Besides, the “recovery time of the test animals' righting reflex” value in series [8] stood at 441 s.
Take `C=C=CC1(OC(=O)c2cncn2[C@H](C)c2ccccc2)CCC1` [Compound D13]: in series [1], the 50% effective dose (ED50) is 0.01 to 0.1 mg/kg. Also, in series [2], the Approximate therapeutic index is reported as above 12 and the “Minimal lethal dose” value is above 6 mg/kg. For the same molecule, in series [3], the “Righting reflex duration” value was 5.09 ± 1.89 min, the “Adverse reactions: Red urine (incidence)” value is given as “Red urine (8/8)” and the “Onset time” value came to 0.25 ± 0.06 min. In addition, the “Corticosterone as an indicator … of inhibition” value in series [4] (setting [9]) amounted to 0. Further, in series [4], the 50% effective concentration (EC50) was above 10 µM. Further, the “Cortisol as an indicator … of inhibition” value in series [5] (setting [9]) is on record as 0. Besides, the EC50 in series [5] was above 10 µM. The “recovery time of the test animals' righting reflex” value in series [6] stood at 1.82 min. Besides, in series [7] (setting [10]), the Onset time fell in the range of 2 to 3 min; the “Recovery time after stopping infusion” value lay within 13 to 22 min; the “Types and incidence of adverse reactions” value is reported as “Tremor (4/6)”. For the same molecule, the “recovery time of the test animals' righting reflex” value in series [8] was determined as 109 s.
On to `C=C=CC1(OC(=O)c2cncn2[C@H](C)c2ccccc2)CCCCC1` [Compound D43], for which the median effective dose (ED50) in series [1] is 0.01 to 0.1 mg/kg. Besides, in series [2], the Approximate therapeutic index is listed as above 13 and the “Minimal lethal dose” value is on record as above 1 mg/kg. In addition, in series [3], the “Adverse reactions: Hindlimb rigidity (incidence)” value is given as “Hindlimb rigidity (2/8),”, the “Righting reflex duration” value is 1.45 ± 0.78 min, the “Adverse reactions: Red urine (incidence)” value was “Red urine (8/8)” and the “Onset time” value is recorded as 0.22 ± 0.07 min. The “Corticosterone as an indicator … of inhibition” value in series [4] (setting [9]) came out at 0. Moreover, in series [4], the EC50 is above 10 µM. In addition, the “Cortisol as an indicator … of inhibition” value in series [5] (setting [9]) is listed as 0. Besides, the EC50 in series [5] is above 10 µM. For the same molecule, in series [6], the “recovery time of the test animals' righting reflex” value is 1.95 min. For the same molecule, in series [7] (setting [10]), the Onset time is 2 to 3 min; the “Recovery time after stopping infusion” value was 11 to 14 min; the “Types and incidence of adverse reactions” value is recorded as “Tremor (4/6)”. Also, the “recovery time of the test animals' righting reflex” value in series [8] is 117 s.
As to `CSCOC(=O)c1cncn1[C@H](C)c1ccccc1` [Compound C26], in series [1], the ED50 is 0.5 to 1 mg/kg. Also, in series [2], the Approximate therapeutic index is given as above 11 and the “Minimal lethal dose” value was above 6 mg/kg. For the same molecule, in series [3], the “Adverse reactions: Muscle twitching (incidence)” value is on record as “Muscle twitching (1/8),”, the “Righting reflex duration” value was 2.11 ± 1.02 min, the “Adverse reactions: Red urine (incidence)” value is recorded as “Red urine (8/8)” and the “Onset time” value is recorded as 0.30 ± 0.09 min. In addition, in series [4] (H295R, Table C3), the “Corticosterone as an indicator … of inhibition” value is reported as 0. In series [4], the EC50 is above 10 µM. The “Cortisol as an indicator … of inhibition” value in series [5] (H295R, Table C3) was 0. Moreover, the EC50 in series [5] is above 10 µM. Further, the “recovery time of the test animals' righting reflex” value in series [6] is recorded as 2.28 min. Besides, in series [7] (setting [11]), the Onset time fell in the range of 2 to 3 min; the “Recovery time after stopping infusion” value lay within 9 to 13 min; the “Types and incidence of adverse reactions” value was “Tremor (2/6)”. For the same molecule, the “recovery time of the test animals' righting reflex” value in series [8] is 137 s.
The molecule `CC#CCOC(=O)c1c(F)ncn1[C@H](C)c1ccccc1` [Compound E35] displayed an ED50 in series [1] of 0.1 to 0.5 mg/kg. In series [2], the Approximate therapeutic index is on record as above 17 and the “Minimal lethal dose” value is listed as above 4 mg/kg. In addition, in series [3], the “Righting reflex duration” value is listed as 2.30 ± 0.80 min, the “Adverse reactions: Red urine (incidence)” value was “urine (8/8)” and the “Onset time” value came to 0.32 ± 0.11 min. Besides, the “Adverse reactions: Tremor (incidence)” value in series [3] (animals affected/animals) is on record as “(4/8), Red”. Besides, the “Corticosterone as an indicator … of inhibition” value in series [4] (setting [12]) is listed as 0. Further, the EC50 in series [4] was above 10 µM. Besides, in series [5] (setting [12]), the “Cortisol as an indicator … of inhibition” value came out at 0. Also, the half-maximal effective concentration (EC50) in series [5] is above 10 µM. Moreover, the “recovery time of the test animals' righting reflex” value in series [6] is reported as 2.52 min. Moreover, in series [7] (setting [13]), the Onset time was 2 to 3 min; the “Recovery time after stopping infusion” value lay in the range of 10 to 13 min; the “Types and incidence of adverse reactions” value is “Tongue stretching (2/6), Tremor (3/6)”. The “recovery time of the test animals' righting reflex” value in series [8] was found to be 151 s.
In the case of `C[C@H](c1ccccc1)n1cncc1C(=O)OCCC1CCC1` [Compound A18], in series [1], the ED50 was in the range of 0.1 to 0.5 mg/kg. For the same molecule, the Approximate therapeutic index in series [2] was above 22. Also, the “Minimal lethal dose” value in series [2] is given as above 5 mg/kg. For the same molecule, the “Righting reflex duration” value in series [3] was 4.77 ± 1.73 min. Besides, the “Adverse reactions: Red urine (incidence)” value in series [3] is listed as “Red urine (8/8)”. Besides, the “Onset time” value in series [3] was 0.20 ± 0.09 min; in series [7] (emulsion, continuous infusion at 2×MIR) it was 3 to 4 min. The “Corticosterone as an indicator … of inhibition” value in series [4] (H295R, Table A3) is recorded as 0. The EC50 in series [4] and in series [5] was above 1 µM throughout. Further, the “Cortisol as an indicator … of inhibition” value in series [5] (H295R, Table A3) worked out at 0. In addition, the results for the “recovery time of the test animals' righting reflex” value in series [6] and in series [8] were 4.55 min and 273 s, respectively. Besides, the “Recovery time after stopping infusion” value in series [7] (after 1 hour infusion at 2×MIR) was 11 to 15 min. In addition, the “Adverse reactions: Tremor (incidence)” value in series [7] (continuous infusion 2×MIR) was “Tremor (5/6)”.
Molecule `C#CC(C)OC(=O)c1cncn1[C@H](C)c1ccccc1` (stereo partly shown) [Compound D14] came in with an ED50 in series [1] of 0.1 to 0.5 mg/kg. In addition, in series [2], the Approximate therapeutic index was above 13 and the “Minimal lethal dose” value was above 3 mg/kg. Besides, in series [3], the “Righting reflex duration” value amounted to 2.09 ± 1.08 min, the “Adverse reactions: Red urine (incidence)” value is “Red urine (8/8)” and the “Onset time” value turned out to be 0.24 ± 0.09 min. In addition, the “Corticosterone as an indicator … of inhibition” value in series [4] (setting [9]) stood at 0. Further, in series [4], the EC50 was above 10 µM. The “Cortisol as an indicator … of inhibition” value in series [5] (setting [9]) amounted to 0. For the same molecule, in series [5], the EC50 was above 10 µM. Also, the “recovery time of the test animals' righting reflex” value in series [6] is 3.5 min. In series [7] (setting [10]), the Onset time lay in the range of 2 to 3 min; the “Recovery time after stopping infusion” value is 11 to 14 min; the “Types and incidence of adverse reactions” value was “Tremor (5/6)”. The “recovery time of the test animals' righting reflex” value in series [8] was 210 s.

The ED50 is the midpoint of the dose-response relation. One may read the EC50 as the concentration at which the effect is half-maximal.
